Results on nine compounds are retold here after PubChem BioAssay (NCI).

Test systems include ACHN renal; HCC-2998 colon; HCT-116 colon; LOX IMVI melanoma; MDA-MB-435; OVCAR-3 ovarian; OVCAR-5 ovarian; SW-620 colon; TK-10 renal; UACC-257 melanoma.
Holding throughout (test): NCI anticancer screen, dose series, 48 h

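Following 48 hours of exposure in 96-well plates, responses at five concentrations were used to interpolate endpoints linearly. At the GI50, growth is halved. TGI: concentration producing complete growth inhibition.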 Some results are limits rather than exact numbers.

Take `O=C(CSc1nc2ccc([N+](=O)[O-])cc2[nH]1)Nc1cccc(Cl)c1`: the GI50 in the assay on ACHN renal is 2.46 µM; with HCC-2998 colon, 3.17 µM; with HCT-116 colon, 2.81 µM; in the assay with LOX IMVI melanoma, 3.05 µM; in the assay on MDA-MB-435, 2.7 µM; in the assay with OVCAR-3 ovarian it was 2.38 µM. In addition, the GI50 was 2.7 µM in the assay with OVCAR-5 ovarian, 3.38 µM in the assay on SW-620 colon, 3.31 µM with TK-10 renal and 1.57 µM in the assay with UACC-257 melanoma. Further, the TGI in the assay with ACHN renal was found to be 8.57 µM; in the assay on HCC-2998 colon, 13.6 µM; with HCT-116 colon, 11.7 µM; in the assay on LOX IMVI melanoma, 13 µM; with MDA-MB-435, 12.2 µM; in the assay with OVCAR-3 ovarian it was 14 µM. For the same compound, the TGI in the assay with OVCAR-5 ovarian was determined as 13.4 µM; in the assay on SW-620 colon, 19.8 µM; with TK-10 renal, 11.8 µM; in the assay with UACC-257 melanoma it was 6.68 µM.
Turning to `CCCN(CCC)c1ccc(C=O)cc1`, the GI50 with ACHN renal is 77.7 µM; in the assay on HCC-2998 colon it was more than 67.5 µM; in the assay with HCT-116 colon it was 39.7 µM; with LOX IMVI melanoma, 59.6 µM; with MDA-MB-435, 39.7 µM; in the assay with OVCAR-3 ovarian it was 24.9 µM. The GI50 in the assay on OVCAR-5 ovarian is more than 100 µM; in the assay with SW-620 colon, 54.7 µM; with TK-10 renal, 37.5 µM; in the assay with UACC-257 melanoma it was 35 µM. For the same compound, the TGI is more than 100 µM in the assay on ACHN renal; more than 100 µM with HCC-2998 colon; more than 100 µM with HCT-116 colon; more than 100 µM in the assay on LOX IMVI melanoma; more than 100 µM in the assay with MDA-MB-435; more than 87.4 µM in the assay with OVCAR-3 ovarian. The TGI was more than 100 µM with OVCAR-5 ovarian, more than 100 µM in the assay with SW-620 colon, more than 100 µM with TK-10 renal and 98.2 µM in the assay on UACC-257 melanoma.
As to `Nc1ccccc1/C=N\Nc1ccccc1`, the GI50 with ACHN renal is 3.01 µM; in the assay with HCC-2998 colon it was 3.16 µM; with HCT-116 colon, more than 100 µM; in the assay on LOX IMVI melanoma, 1.29 µM; in the assay on MDA-MB-435 it was 4.5 µM; in the assay with OVCAR-3 ovarian it was 36.2 µM. Also, the GI50 was more than 100 µM in the assay with OVCAR-5 ovarian, 11.5 µM in the assay with SW-620 colon, more than 100 µM in the assay on TK-10 renal and 51.5 µM with UACC-257 melanoma. Also, the TGI with ACHN renal, with HCC-2998 colon, in the assay on HCT-116 colon, with LOX IMVI melanoma, with MDA-MB-435 and in the assay with OVCAR-3 ovarian was more than 100 µM in each case. For the same compound, the TGI in the assay on OVCAR-5 ovarian, in the assay with SW-620 colon, in the assay with TK-10 renal and in the assay on UACC-257 melanoma was more than 100 µM each time.
With `O=C(O)CN(CC(=O)O)Cc1cc2c(cc1O)Oc1cc(O)c(CN(CC(=O)O)CC(=O)O)cc1C21OC(=O)c2ccccc21`, the TGI in the assay with ACHN renal, with HCC-2998 colon, in the assay on HCT-116 colon, in the assay with LOX IMVI melanoma, in the assay on MDA-MB-435 and with OVCAR-3 ovarian was more than 100 µM each time. Also, the TGI in the assay on OVCAR-5 ovarian, in the assay on SW-620 colon, in the assay with TK-10 renal and in the assay with UACC-257 melanoma was more than 100 µM throughout.
With `CC(C)c1ccc2c(N=Nc3ccc(S(N)(=O)=O)cc3)c(O)[nH]c2c1`, the GI50 with ACHN renal was more than 14 µM; in the assay on HCC-2998 colon, more than 21.1 µM; with HCT-116 colon, 11 µM; in the assay with LOX IMVI melanoma, 9.01 µM; in the assay on MDA-MB-435, more than 23.2 µM; with OVCAR-3 ovarian it was 6.21 µM. Moreover, the GI50 is more than 25 µM in the assay with OVCAR-5 ovarian, more than 25 µM with SW-620 colon, more than 12.1 µM with TK-10 renal and more than 21.5 µM in the assay on UACC-257 melanoma. The TGI is more than 25 µM with ACHN renal; more than 25 µM in the assay on HCC-2998 colon; more than 25 µM in the assay with HCT-116 colon; more than 25 µM with LOX IMVI melanoma; more than 25 µM in the assay with MDA-MB-435; 18.6 µM with OVCAR-3 ovarian. Moreover, the TGI in the assay with OVCAR-5 ovarian was more than 25 µM; in the assay with SW-620 colon, more than 25 µM; with TK-10 renal it was more than 24 µM; in the assay with UACC-257 melanoma, more than 25 µM.
For `CSC(=S)N/N=C/c1ccccc1`, the TGI in the assay with ACHN renal, in the assay on HCC-2998 colon, with HCT-116 colon, in the assay on LOX IMVI melanoma, in the assay on MDA-MB-435 and in the assay with OVCAR-3 ovarian was more than 100 µM throughout. For the same compound, the TGI in the assay on OVCAR-5 ovarian, in the assay with SW-620 colon, in the assay with TK-10 renal and in the assay with UACC-257 melanoma was more than 100 µM in each case.
Consider `O=C(CCCCCCC(=O)N/N=C/c1ccc(N(c2ccccc2)c2ccccc2)cc1)NO`, for which the GI50 in the assay with ACHN renal is 2.28 µM; with HCC-2998 colon, 2.87 µM; in the assay on HCT-116 colon, 0.349 µM; in the assay with LOX IMVI melanoma, 0.432 µM; in the assay on MDA-MB-435, 3.16 µM; in the assay with OVCAR-3 ovarian it was 1.45 µM. Also, the GI50 in the assay with OVCAR-5 ovarian was 0.417 µM; in the assay on SW-620 colon, 2.49 µM; in the assay on TK-10 renal, 0.314 µM; with UACC-257 melanoma, 0.39 µM. Further, the TGI came out at 7.39 µM in the assay on ACHN renal; 11.2 µM with HCC-2998 colon; 1.97 µM in the assay with HCT-116 colon; 1.61 µM in the assay with LOX IMVI melanoma; 18.5 µM in the assay with MDA-MB-435; 4.58 µM in the assay on OVCAR-3 ovarian. For the same compound, the TGI with OVCAR-5 ovarian was found to be 2.94 µM; with SW-620 colon, 14.3 µM; with TK-10 renal, 1.86 µM; in the assay on UACC-257 melanoma it was 1.57 µM.
Turning to `COc1ccc(S(=O)(=O)N2CCN(C(=O)OCc3ccccc3)CC2C(=O)NO)cc1` (stereo not given), the GI50 was 10.6 µM with ACHN renal; more than 25 µM in the assay on HCC-2998 colon; more than 25 µM in the assay on HCT-116 colon; 1.28 µM with LOX IMVI melanoma; 13.4 µM in the assay with MDA-MB-435; 12.1 µM in the assay on OVCAR-3 ovarian. In addition, the GI50 in the assay with OVCAR-5 ovarian was more than 25 µM; in the assay on SW-620 colon, more than 25 µM; in the assay with TK-10 renal, 10.9 µM; with UACC-257 melanoma, more than 25 µM. Also, the TGI is more than 25 µM in the assay with ACHN renal; more than 25 µM in the assay with HCC-2998 colon; more than 25 µM with HCT-116 colon; 4.6 µM with LOX IMVI melanoma; more than 25 µM in the assay on MDA-MB-435; more than 25 µM in the assay on OVCAR-3 ovarian. Moreover, the TGI in the assay with OVCAR-5 ovarian, in the assay with SW-620 colon, with TK-10 renal and with UACC-257 melanoma was more than 25 µM in each case.
In the case of `O=C(/C=C/C=C/c1ccccc1)c1ccc(Nc2nc(Nc3ccccc3)nc(Nc3ccccc3)n2)cc1`, the GI50 in the assay with ACHN renal was more than 100 µM; in the assay on HCC-2998 colon, more than 100 µM; with HCT-116 colon it was 12.2 µM; in the assay on LOX IMVI melanoma, more than 100 µM; with MDA-MB-435, more than 100 µM; with OVCAR-3 ovarian, 47.8 µM. Also, the GI50 in the assay with OVCAR-5 ovarian, with SW-620 colon, with TK-10 renal and in the assay with UACC-257 melanoma was more than 100 µM each time. Besides, the TGI with ACHN renal, in the assay on HCC-2998 colon, with HCT-116 colon, in the assay on LOX IMVI melanoma, in the assay with MDA-MB-435 and in the assay with OVCAR-3 ovarian was more than 100 µM in each case. Besides, the TGI in the assay with OVCAR-5 ovarian, in the assay on SW-620 colon, in the assay on TK-10 renal and in the assay on UACC-257 melanoma was more than 100 µM throughout.
